{"source": "patent US20130345306A1", "about": "“IDENTIFICATION OF C3 COMPLEMENT MOLECULE AT THE SITE OF INJURY TO BLOOD VESSELS IN THE RETINA OF OXYGEN EXPOSED ANIMALS” (priority 2011, published 2013)", "key": {"[1]": {"tested_on": "murine oxygen-induced retinopathy (OIR)", "assay": "Murine OIR, SB290157 intraperitoneal just prior to 75% oxygen, preservation of capillary bed", "assay_type": "in vivo, mouse", "conditions": "2-5 mg/kg i.p. just prior to 75% oxygen DOL 7-12; vs sham saline injected oxygen-exposed litter mates", "procedure": "Murine Model of Oxygen-Induced Retinopathy (OIR): In this regard we reported the role of active C3a in the OIR (15). C57BL/6J mice were obtained from Jackson Laboratories. After birth the litter of mice were nursed by their dam in a room air environment from day of life (DOL) 0 to DOL 6. On DOL 7 the litter were separated in half. One half were placed with their nursing dam in a custom made incubator from DOL 7 through DOL 12 ([…]) with the oxygen concentration maintained at 75% measured twice daily. The other half of the litter were raised in room air as controls. Dams were replaced every 24 hours in the incubator. […]\nAfter a rinse, the retinas were permeabilized with 0.1% Triton X100 and stained with Alexa Fluor 488-conjugated isolectin GS-IB4, followed by blocking with 5% donkey serum. […] Images were obtained digitally with a fluorescence microscope and a digital camera. […]\nFor a given control half litter the areal extent of total destruction can be estimated, in a non-limiting example from the area extending from optic nerve to mid periphery of the retina. For the SB290157 treated animals the measured area of destruction can be estimated, in a non-limiting example from the area extending from optic nerve to mid periphery of the retina. […] The results of this experiment are measured in prevention of capillary loss. […]"}, "airway neutrophilia": {"tested_on": "airway neutrophilia", "conditions": "in vivo; cited from earlier work"}, "human C3aR": {"target": "human C3aR (Homo sapiens, UniProt Q16581)", "sequence (Q16581 whole entry)": "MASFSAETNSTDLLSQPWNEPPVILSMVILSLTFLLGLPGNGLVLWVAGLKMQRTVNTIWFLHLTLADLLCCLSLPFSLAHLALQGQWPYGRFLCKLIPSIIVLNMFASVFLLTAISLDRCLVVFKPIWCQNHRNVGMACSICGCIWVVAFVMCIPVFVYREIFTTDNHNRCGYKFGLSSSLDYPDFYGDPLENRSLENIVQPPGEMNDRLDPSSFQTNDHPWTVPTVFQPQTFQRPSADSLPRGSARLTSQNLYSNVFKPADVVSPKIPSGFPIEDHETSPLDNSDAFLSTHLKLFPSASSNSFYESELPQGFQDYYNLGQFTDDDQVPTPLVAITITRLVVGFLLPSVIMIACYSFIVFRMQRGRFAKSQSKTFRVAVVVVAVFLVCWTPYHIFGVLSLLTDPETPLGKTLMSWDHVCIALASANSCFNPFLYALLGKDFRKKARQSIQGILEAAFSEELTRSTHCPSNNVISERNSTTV", "conditions": "cited from earlier work"}, "rodent C3aR": {"tested_on": "rodent C3aR", "conditions": "cited from earlier work"}, "new born mice": {"tested_on": "new born mice", "assay": "Murine OIR trial with progressively increased SB290157 dosage, observation for untoward reactions or side effects", "assay_type": "in vivo, mouse", "conditions": "i.p. DOL 5; dosage increased from 2.5 to 5, 7.5, 10, 15, 25, 50 mgm/kg; 75% O2 DOL 7-12", "procedure": "Standard O2 exposure 75% DOL 7-12; 3) Euthanasia at DOL17, followed by enucleation, removal of the retina and separation from the retina from underlying Pigment Epithelial layer. Flatmount and stain for vessels with IsoLectin was performed by incubating the preparation with goat AB followed by counter-staining with Rhodamine to bring out the presence of active C3a; 4)Microscopy at 2.5× and 40× for: capillary bed anatomy; presence of “ghost vessels” previously described; presence of cellular debris noted previously thought to be pieces of partially destroyed but not digested cell wall; destruction or absence of neurons and glial in the retina surrounding the Optic Nerve Head(from which major blood vessels exit undamaged at least as can be detected by the oxygen exposure); presence or absence of neovascular tufts (a late complication of oxygen damage). An additional trial with Intravitreal Injection will be performed as this paper is prepared.\nMATERIALS & METHOD: Litters of black 6 new born mice were divided in half at birth. At DOL seven, one half of the litter were placed in an oxygen chamber maintained at 75%+/−2% oxygen till DOL 12. The oxygen exposed mice were maintained in room air until DOL 17. The control mice were raised in room air until DOL 17 when both halves were euthanized at DOL17. Eyes were enucleated and fixed in 4% paraformaldehyde at 4° C. overnight. […]"}, "[2]": {"tested_on": "murine oxygen-induced retinopathy (OIR)", "assay": "Murine oxygen-induced retinopathy (OIR), SB290157 injected intraperitoneally on DOL 5, retinal vasculature pattern on DOL 17", "assay_type": "in vivo", "conditions": "1 mg/kg i.p. DOL 5", "procedure": "litters of new born mice were divided into 4 groups. On Day of Life (DOL) 5, SB290157 1 mg per kilogram body weight is injected intraperitoneally into mice in Group 1 and Group 3; same volume solvent without SB290157 is injected intraperitoneally into mice in Group 2 and Group 4. Mice from group 1 and 2 are raised in room air all the time, but mice from group 3 and 4 are raised in room air till DOL 7 when they are transfer into 75% oxygen chamber and on DOL 12 they are returned into room air. On DOL 17, eyes are enucleated and retinas dissected after euthanasia. Retinas are then stained with Alexa Fluor 488 conjugated isolectin GS-IB4 and mounted on slide for vasculature pattern study."}, "[3]": {"conditions": "75% oxygen DOL 7-12, DOL 17, vs solvent-injected oxygen-exposed group 4"}}, "note": "Entries after “also recorded” stand apart in the source; their conditions may differ.", "data": [{"smiles": "NC(N)=NCCC[C@H](NC(=O)COCC(c1ccccc1)c1ccccc1)C(=O)O", "note": "[SB290157]", "values": [{"measurement": "preservation of capillary bed", "setting": "[1]", "result": "prevents the destruction of capillary bed; also recorded: preservation of capillary bed"}, {"measurement": "effect in airway neutrophilia", "setting": "airway neutrophilia", "result": "beneficial effects"}, {"measurement": "C3a receptor blockade", "setting": "human C3aR", "result": "blocking"}, {"measurement": "C3a receptor blockade", "setting": "rodent C3aR", "result": "blocking"}, {"measurement": "untoward reactions or side effects", "setting": "new born mice", "result": "None were observed"}, {"measurement": "effect on murine OIR (conclusion)", "setting": "[2]; 75% oxygen DOL 7-12", "result": "can attenuate murine OIR"}, {"measurement": "capillary damage in retinal whole mounts", "setting": "[2]; [3]", "result": "attenuated the damage to the capillary bed; also recorded: significantly less capillary damage"}, {"measurement": "neovascularization tufts", "setting": "[2]; [3]", "result": "few to no vascular tufts; also recorded: less neovascularization tufts"}, {"measurement": "retinal vasculature / toxicity to forming vascular tissue in room air raised mice", "setting": "[2]; room air, DOL 17, vs solvent group 2", "result": "No evidence of toxicity to forming vascular tissue; also recorded: normal developing vasculature patterns without significant difference"}]}]}
